# Assay results published in US9445998B2, “Pharmaceutical dosage forms comprising a low-solubility drug and a polymer” (Bend Research, Inc., priority 2004, dated 2016).
# Structures can show the parent of a compound that is named as a salt. Where two headings read alike, the source gives them in different places.
# Experiments:
# [1] = for solubility in phosphate buffered saline: pH 6.5; for maximum dissolved drug concentration: pH 6.5 PBS solution
# Description: It is known that some drugs may crystallize into one of several different crystal forms. Such crystal forms are often referred to as “polymorphs.” As used herein, “a high-energy crystalline form” means that the drug is in a crystal form which provides solubility improvement as described below.
# By “amorphous” is meant simply that the drug is in a non-crystalline state. As used herein, the term “a major portion” of means that at least 60 wt % of the drug in the composition is in the amorphous form, rather than the crystalline form. […] Amounts of crystalline drug may be measured by Powder X-Ray Diffraction (PXRD), Scanning Electron Microscope (SEM) analysis, differential scanning calorimetry (DSC), or any other standard quantitative measurement.
# An appropriate PBS solution is an aqueous solution comprising 20 mM Na2HPO4, 47 mM KH2PO4, 87 mM NaCl, and 0.2 mM KCl, adjusted to pH 6.5 with NaOH. An appropriate MFD solution is the same PBS solution wherein there is also present 7.3 mM sodium taurocholic acid and 1.4 mM of 1-palmitoyl-2-oleyl-sn-glycero-3-phosphocholine. Water is a preferred dissolution media for some fast precipitating salts. […] In such cases it may be preferred to use an unbuffered test medium such as distilled water as the dissolution medium.
# [2] = type: physicochemical; settings: not told
# Method: An Accurel® PP 1E microporous polypropylene membrane was obtained from Membrana GmbH (Wuppertal, Germany). The membrane was washed in isopropyl alcohol and rinsed in methanol in a sonicating bath for 1 minute at ambient temperature, and then allowed to air dry at ambient temperature. The feed side of the membrane was then plasma-treated to render it hydrophilic by placing a sample of the membrane in a plasma chamber. The atmosphere of the plasma chamber was saturated with water vapor at a pressure of 550 mtorr. A plasma was then generated using radio frequency (RF) power inductively coupled into the chamber via annular electrodes at a power setting of 50 watts for 45 seconds. The contact angle of a drop of water placed on the surface of the plasma-treated membrane was less than about 40°. The contact angle of a drop of water placed on the permeate side of the same membrane was greater than about 110°.
# A permeate reservoir was formed by gluing a sample of the plasma-treated membrane to a glass tube having an inside diameter of about 1 inch (2.54 cm) using an epoxy-based glue (LOCTITE® E-30CL HYSOL® from Henkel Loctite Corp, Rocky Hill, Conn.). The feed-side of the membrane was oriented so that it was on the outside of the permeate reservoir, while the permeate-side of the membrane was oriented so that it was on the inside of the reservoir. The effective membrane area of the membrane on the permeate reservoir was about 4.9 cm^2. The permeate reservoir was placed into a glass feed reservoir. The feed reservoir was equipped with a magnetic stir bar and the reservoir was placed on a stir plate and the stir rate was set to 100 rpm during the test. The apparatus was placed into a chamber maintained at 37° C. for the duration of the test. Further details of the test apparatus and protocols are presented in co-pending U.S. Patent Application Ser. No. 60/557,897, entitled “Method and Device for Evaluation of Pharmaceutical Compositions,” filed Mar. 30, 2004, incorporated herein by reference.
# To form the feed solution, a 1.429 mg (0.5 mgA) sample of CC-1 was weighed into a feed reservoir. (As used herein, “mgA” is milligrams of active drug, reported as the free base, non-salt form, non-hydrate drug molecule.) To this was added 5 mL of the MFD solution previously described, consisting of PBS solution containing 7.3 mM sodium taurocholic acid and 1.4 mM of 1-palmitoyl-2-oleyl-sn-glycero-3-phosphocholine (0.5% NaTC/POPC). […] The feed solution was mixed using a vortex mixer for 1 minute. Before the membrane contacted the feed solution, 5 mL of 60 wt % decanol in decane was placed into the permeate reservoir. Time zero in the test was when the membrane was placed in contact with the feed solution. A […] aliquot of the permeate solution was collected at the times indicated. Samples were then diluted in […] IPA and analyzed using HPLC.
# The maximum flux of drug across the membrane (in units of μgA/cm^2-min) was determined by performing a least-squares fit to the data in Table 4 from 0 to 60 minutes to obtain the slope (CC-1: 0.26 μgA/mL-min; Control 1A: 0.13 μgA/mL-min; Control 1B: 0.07 μgA/mL-min), multiplying the slope by the permeate volume (5 mL), and dividing by the membrane area (4.9 cm^2).
# [3] = Microcentrifuge dissolution test in MFD solution; type: physicochemical; design: AUC: concentration or dose not given beside the values; settings: for Dissolved Ziprasidone Concentration / AUC: MFD solution pH 6.5, 37° C.; for Dissolved Ziprasidone Concentration: 200 μgA/mL if all dissolved
# Method: A microcentrifuge dissolution test was performed to verify that ziprasidone hydrochloride monohydrate is a solubility-improved form of ziprasidone. For this test, a sufficient amount of ziprasidone hydrochloride monohydrate was added to a microcentrifuge test tube so that the concentration of ziprasidone would have been 200 μgA/mL, if all of the ziprasidone had dissolved. The tests were run in duplicate. The tubes were placed in a 37° C. temperature-controlled chamber, and 1.8 mL MFD solution at pH 6.5 and 290 mOsm/kg was added to each respective tube. The samples were quickly mixed using a vortex mixer for about 60 seconds. The samples were centrifuged at 13,000 G at 37° C. for 1 minute prior to collecting a sample. The resulting supernatant solution was then sampled and diluted 1:5 (by volume) with methanol. Samples were analyzed by high-performance liquid chromatography (HPLC) at a UV absorbance of 315 nm using a Zorbax RxC8 Reliance column and a mobile phase consisting of 55% (50 mM potassium dihydrogen phosphate, pH 6.5)/45% acetonitrile. Drug concentration was calculated by comparing UV absorbance of samples to the absorbance of drug standards. The contents of each tube were mixed on the vortex mixer and allowed to stand undisturbed at 37° C. until the next sample was taken. Samples were collected at 4, 10, 20, 40, 90, and 1200 minutes following administration to the MFD solution.
# A similar test was performed with the crystalline ziprasidone free base as a control, and a sufficient amount of material was added so that the concentration of compound would have been 200 μgA/mL, if all of the ziprasidone had dissolved.
# The concentrations of ziprasidone obtained in these tests were used to determine the maximum dissolved concentration of ziprasidone (“MDC90”) and the area under the concentration-versus-time curve (“AUC90”) during the initial ninety minutes.
# [4] = Solubility in water; type: physicochemical; settings: expressed as the free base, hydrochloride monohydrate
# Description: An example of a drug having a crystalline highly soluble salt form is ziprasidone. Ziprasidone hydrochloride monohydrate has a solubility of about 10 μgA/mL (expressed as the free base) in water, whereas the free base form has a solubility of less than about 0.2 μgA/mL under the same conditions. Thus, crystalline ziprasidone hydrochloride is a solubility-improved form relative to the crystalline free base form of ziprasidone.
compound,measurement,setting,value
"O=C(N[C@@H](Cc1ccccc1)[C@@H](O)C(=O)N1C[C@@H](O)[C@@H](O)C1)c1cc2cc(Cl)ccc2[nH]1 [A1, 5-chloro-1H-indole-2-carboxylic acid [(1S)-benzyl-3-((3R,4S)-dihydroxypyrrolidin-1-yl)-(2R)-hydroxy-3-oxpropyl]amide]",solubility in phosphate buffered saline,[1],about 480 μg/mL
"O=C(N[C@@H](Cc1ccccc1)[C@@H](O)C(=O)N1C[C@@H](O)[C@@H](O)C1)c1cc2cc(Cl)ccc2[nH]1 [A2, 5-chloro-1H-indole-2-carboxylic acid [(1S)-benzyl-3-((3R,4S)-dihydroxypyrrolidin-1-yl)-(2R)-hydroxy-3-oxpropyl]amide]",solubility in phosphate buffered saline,[1],87 µg/mL
same,maximum dissolved drug concentration,[1],87 µg/mL
"O=C1Cc2cc(CCN3CCN(c4nsc5ccccc45)CC3)c(Cl)cc2N1 [Control 1A, ziprasidone hydrochloride monohydrate]",Ziprasidone Concentration in Permeate,"[2]; 0 min, 100 μgA/mL, pH 6.5",0.5 μgA/mL
same,Maximum Flux of Ziprasidone,"[2]; 100 μgA/mL, pH 6.5",0.13 μgA/cm^2-min
same,Ziprasidone Concentration in Permeate,"[2]; 20 min, 100 μgA/mL, pH 6.5",3.8 μgA/mL
same,Ziprasidone Concentration in Permeate,"[2]; 40 min, 100 μgA/mL, pH 6.5",6.0 μgA/mL
same,Ziprasidone Concentration in Permeate,"[2]; 60 min, 100 μgA/mL, pH 6.5",8.4 μgA/mL
same,Ziprasidone Concentration in Permeate,"[2]; 90 min, 100 μgA/mL, pH 6.5",12.4 μgA/mL
same,Ziprasidone Concentration in Permeate,"[2]; 120 min, 100 μgA/mL, pH 6.5",15.3 μgA/mL
same,Ziprasidone Concentration in Permeate,"[2]; 180 min, 100 μgA/mL, pH 6.5",20.6 μgA/mL
same,Ziprasidone Concentration in Permeate,"[2]; 240 min, 100 μgA/mL, pH 6.5",25.2 μgA/mL
same,Ziprasidone Concentration in Permeate,"[2]; 360 min, 100 μgA/mL, pH 6.5",30.6 μgA/mL
"O=C1Cc2cc(CCN3CCN(c4nsc5ccccc45)CC3)c(Cl)cc2N1 [Ziprasidone hydrochloride monohydrate, ziprasidone hydrochloride monohydrate]",AUC90 relative to that provided by the free base,[3]; MFD solution,14 fold
same,MDC90 relative to that provided by the free base,[3]; MFD solution,11 fold
same,Dissolved Ziprasidone Concentration,[3]; time 0 min,0 μgA/mL
same,Dissolved Ziprasidone Concentration,"[3]; time 4 min, hydrochloride monohydrate",14 μgA/mL
same,Dissolved Ziprasidone Concentration,"[3]; time 10 min, hydrochloride monohydrate",15 μgA/mL
same,Dissolved Ziprasidone Concentration,"[3]; time 20 min, hydrochloride monohydrate",20 μgA/mL
same,Dissolved Ziprasidone Concentration,"[3]; time 40 min, hydrochloride monohydrate",22 μgA/mL
same,Dissolved Ziprasidone Concentration,"[3]; time 90 min, hydrochloride monohydrate",18 μgA/mL
same,Dissolved Ziprasidone Concentration,"[3]; time 1200 min, hydrochloride monohydrate",9 μgA/mL
same,AUC,[3]; up to time 0 min,0 min-μgA/mL
same,AUC,"[3]; up to time 4 min, hydrochloride monohydrate",30 min-μgA/mL
same,AUC,"[3]; up to time 10 min, hydrochloride monohydrate",110 min-μgA/mL
same,AUC,"[3]; up to time 20 min, hydrochloride monohydrate",280 min-μgA/mL
same,AUC,"[3]; up to time 40 min, hydrochloride monohydrate",700 min-μgA/mL
same,AUC,"[3]; up to time 90 min, hydrochloride monohydrate","1,700 min-μgA/mL"
same,AUC,"[3]; up to time 1200 min, hydrochloride monohydrate","16,400 min-μgA/mL"
same,AUC90,"[3]; area under the concentration-versus-time curve during the initial ninety minutes, MFD solution, hydrochloride monohydrate",1700 min·µgA/mL
same,MDC90,"[3]; maximum dissolved concentration during the initial ninety minutes, MFD solution, hydrochloride monohydrate",22 µgA/mL
same,Maximum Flux of Ziprasidone,[2],0.16 μgA/cm^2-min
same,Concentration (drug in the permeate solution),"[2]; 0 min, 100 μgA/mL, pH 6.5",0.5 μgA/mL
same,Concentration (drug in the permeate solution),"[2]; 20 min, 100 μgA/mL, pH 6.5",5.2 μgA/mL
same,Concentration (drug in the permeate solution),"[2]; 40 min, 100 μgA/mL, pH 6.5",8.1 μgA/mL
same,Concentration (drug in the permeate solution),"[2]; 60 min, 100 μgA/mL, pH 6.5",10.0 μgA/mL
same,Concentration (drug in the permeate solution),"[2]; 90 min, 100 μgA/mL, pH 6.5",11.4 μgA/mL
same,Concentration (drug in the permeate solution),"[2]; 120 min, 100 μgA/mL, pH 6.5",12.9 μgA/mL
same,Concentration (drug in the permeate solution),"[2]; 180 min, 100 μgA/mL, pH 6.5",18.1 μgA/mL
same,Concentration (drug in the permeate solution),"[2]; 240 min, 100 μgA/mL, pH 6.5",20.9 μgA/mL
same,Concentration (drug in the permeate solution),"[2]; 360 min, 100 μgA/mL, pH 6.5",22.6 μgA/mL
same,solubility in water,[4],about 10 μgA/mL
"O=C(N[C@@H](Cc1ccccc1)[C@@H](O)C(=O)N1C[C@@H](O)[C@@H](O)C1)c1cc2cc(Cl)ccc2[nH]1 [amorphous form, 5-chloro-1H-indole-2-carboxylic acid [(1S)-benzyl-3-((3R,4S)-dihydroxypyrrolidin-1-yl-)-(2R)-hydroxy-3-oxypropyl]amide]",maximum dissolved drug concentration,[1],about 600 μg/mL
ziprasidone tosylate [Control 3],Maximum Flux of Ziprasidone,[2],0.04 μg/cm^2-min
